The text below walks through data of PMC12668289 (RSC Chemical Biology, 2025).

Several values for one entry are separate records, joined by “and”; a condition that tells them apart may be missing. Equal entries are not always repeated. Some results are limits rather than exact numbers.

The target in data set [1] is T1, Fluc (Photinus pyralis, UniProt P08659). As to conditions: with Fluc; cited from earlier work.
Data set [2] deals with T1, Fluc. Put plainly: Steady-state kinetics of luciferase reactions (luminometer). It counts as biochemical. The settings on record: for appKm: pH 8.0, 25 °C; for Relative kcat: relative to 2a compound. The procedure: (§1) 1.5 Bioluminescence characterizations
(§2) Reactions of luciferases, including Photinus pyralis luciferase (Fluc), Phrixothrix hirtus luciferase (SLR), Pyrearinus termitilluminans […]
(§3) mM D-LH 2 analogues, 3 mM ATP, 6 mM MgCl2, and 10 µM luciferase in 0.2 ml of 100 mM HEPES-NaOH pH 8.0. The bioluminescence (BL) emission characteristics were recorded using a microplate reader in a BL mode (Thermo Scientific, Varioskan, LUX multimode). […]
BL of the
(§4) The reactions were initiated by mixing 25 µl of premixed solution of luciferases/D-LH 2 analogues with 125 µl of 3 mM ATP and 6 mM MgCl2 in 100 mM HEPES-NaOH (pH 8.0). The light intensity (relative light unit, RLU) during 0-300 sec was then collected to represent the overall luciferase activity which was further used for calculating kinetic parameters from the Michaelis-Menten equation. […]

Data set [3] concerns the target T1, Fluc. Put plainly: Stopped-flow luminometry, single turnover light formation and decay. It counts as biochemical. As to conditions: Fluc single turnover, 25 °C. The procedure:
1.5 Bioluminescence characterizations […]
One syringe was filled with a solution of 50 µM Fluc, 3 mM ATP, and 6 mM
in both syringes were mixed by a stopped-flow device and measured the light emission at 25 °C in triplicate. […]
2.8 Investigation of bioluminescence kinetics using stopped-flow luminometry
reactions were investigated using a stopped-flow spectrophotometer (employing a light-off mode for detecting the luminescence). One

Data set [4] has as its system Pmluc-WT. Put plainly: BL emission spectra of luciferase-luciferin reactions. The class given is biochemical, Pyrocoelia miyako. As to conditions: 100 mM HEPES pH 8.0, 25 °C. The procedure:
as §1, §2, §3
(§5) sphere-based multichannel spectrometer with a charge-coupled device (CCD) detector. […]

In data set [5] the test system is Eluc. Put plainly: Steady-state kinetics of luciferase reactions (luminometer). The class given is biochemical, Pyrearinus termitilluminans. The settings on record: for appKm: pH 8.0, 25 °C; for Relative kcat: relative to 2a compound. The procedure: as §1, §2, §3
BL of the
as §4

Data set [6] has as its system Pmluc-N230S. The description is as above. It counts as biochemical, Pyrocoelia miyako. As to conditions: Pmluc-N230S; for appKm: pH 8.0, 25 °C; for Relative kcat: relative to 2a compound. The procedure:
as §1, §2, §3
BL of the
as §4

Data set [7] deals with T1, Fluc. Put plainly: BL emission spectra of luciferase-luciferin reactions. The class given is biochemical. As to conditions: 100 mM HEPES pH 8.0, 25 °C. As to the method:
as §1, §2, §3, §5

Data set [8] addresses T1, Fluc. Put plainly: biochemical. The class given is binding. The settings on record: ITC.
The nature of data set [9]: Absorption and fluorescence spectra of luciferins. It counts as physicochemical. As to conditions: 100 mM HEPES pH 8.0, 25 °C. As to the method:
2.6 Spectra of firefly luciferins
spectrophotometer (Agilent technologies, Cary 100 UV Vis, Cary Series UV-Vis Spectrophotometer).
were recorded by a microplate reader (Thermo Scientific, Varioskan, LUX multimode) in fluorescence mode. The reactions of D-LH 2 […]
Supplementary Table S5. […]
[e] ND denotes “not detectable”. […]

In data set [10] the test system is Pmluc-WT. Put plainly: Steady-state kinetics of luciferase reactions (luminometer). It counts as biochemical, Pyrocoelia miyako. As to conditions: for appKm: pH 8.0, 25 °C; for Relative kcat: relative to 2a compound. The procedure: as §1, §2, §3
BL of the
as §4

For data set [11], the system named is SLR. Put plainly: BL emission spectra of luciferase-luciferin reactions. The settings on record: 100 mM HEPES pH 8.0, 25 °C. The class given is biochemical, Phrixothrix hirtus. The procedure: as §1, §2, §3, §5
In data set [12] the test system is SLR. Put plainly: Steady-state kinetics of luciferase reactions (luminometer). It counts as biochemical, Phrixothrix hirtus. The settings on record: for appKm: pH 8.0, 25 °C; for Relative kcat: relative to 2a compound. The procedure: as §1, §2, §3
BL of the
as §4

Data set [13] concerns Eluc. Put plainly: BL emission spectra of luciferase-luciferin reactions. It counts as biochemical, Pyrearinus termitilluminans. The settings on record: 100 mM HEPES pH 8.0, 25 °C. As to the method:
as §1, §2, §3, §5

Data set [14] deals with Pmluc-N230S. Described as above. The class given is biochemical, Pyrocoelia miyako. The settings on record: 100 mM HEPES pH 8.0, 25 °C.
Protocol: mM D-LH 2 analogues, 3 mM ATP, 6 mM MgCl2, and 10 µM luciferase in 0.2 ml of 100 mM HEPES-NaOH pH 8.0. The bioluminescence (BL) emission characteristics were recorded using a microplate reader in a BL mode (Thermo Scientific, Varioskan, LUX multimode). A digital single-lens reflex (DSLR) camera (Nikon D80, CCD sensor) with a 30-second exposure period was used to capture the BL images.
were selected to investigate their BL emission spectra with luciferases including Fluc, SLR, Pmluc-WT, Pmluc-N230S using an integrating sphere-based multichannel spectrometer with a charge-coupled device (CCD) detector.
Data set [15] addresses Fluc-ApCPP complex (Photinus pyralis, UniProt P08659). Put plainly: biochemical. The class given is binding. The settings on record: ITC.
Data set [16] concerns luciferases. As to conditions: cited from earlier work.
Where [17] appears, read: concentration range tested 0-300.

T1 sequence (P08659 whole entry): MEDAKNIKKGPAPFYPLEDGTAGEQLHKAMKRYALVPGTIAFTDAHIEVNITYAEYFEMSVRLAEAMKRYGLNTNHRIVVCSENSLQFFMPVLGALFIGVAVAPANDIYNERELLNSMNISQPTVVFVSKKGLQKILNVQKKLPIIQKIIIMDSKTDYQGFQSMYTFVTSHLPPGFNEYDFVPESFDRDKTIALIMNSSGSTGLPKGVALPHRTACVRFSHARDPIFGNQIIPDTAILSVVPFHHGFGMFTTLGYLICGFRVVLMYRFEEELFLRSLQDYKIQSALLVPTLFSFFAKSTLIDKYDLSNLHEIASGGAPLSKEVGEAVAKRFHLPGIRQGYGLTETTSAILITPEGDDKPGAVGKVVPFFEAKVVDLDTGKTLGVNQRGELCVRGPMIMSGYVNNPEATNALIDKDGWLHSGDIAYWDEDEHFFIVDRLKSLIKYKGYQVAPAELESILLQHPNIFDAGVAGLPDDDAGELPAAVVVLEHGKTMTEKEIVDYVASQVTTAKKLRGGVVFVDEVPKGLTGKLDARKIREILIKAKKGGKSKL
Chain of Fluc-ApCPP complex (P08659 whole entry, one chain of several): as the sequence (P08659 whole entry) above

For the molecule `CN(C)c1ccc(/C=C/C=C/C2=N[C@@H](C(=O)O)CS2)cc1.Cl` [AkaLumine–HCl], in [1], the Quantum yield is 4.0 ± 0.5%.
The term Kd denotes the concentration at which binding is half-saturated. As for `COc1cc2nc(C3=N[C@@H](C(=O)O)CS3)sc2c(OC)c1O` [Compound 2d, 5′,7′-dimethoxy-D-luciferin], the Substrate inhibition is above 0.8 µM in data set [2] (setting [17]), above 0.8 µM in [10] (setting [17]) and above 16.6 µM in data set [12] (setting [17]). The appKm in data set [2] is given as 0.2 µM; in data set [5], 34.7 µM; in data set [6], 13.3 µM; in [10], 0.2 µM; in [12], 5.0 µM. Further, the Relative kcat is listed as 1.3 in [2]; 0.1 in data set [5]; 0.2 in data set [6]; ~ 0.02 in data set [10]; 0.8 in data set [12]. In addition, in data set [3], the “Observed rate constant (kobs) Light decay Faster phase” value came out at 0.50 ± 0.00 s⁻¹. Further, in data set [3], the “Observed rate constant (kobs) Light formation” value came to 8.13 ± 0.08 s⁻¹. The “Bioluminescence wavelength (BLλ)” value in data set [4] is given as 582 nm; in [7], 625 nm; in [11], above 630 nm; in [11] (listed as 5′,7′-dimethoxy-D-LH2) it was 663 nm; in [13], 596 nm; in data set [14], 646 nm. The molecule also showed a N site in data set [8] of 0.42. The “G (free energy of binding)” value in [8] (25 °C) is reported as -6.18 kcal/mol. For the same molecule, the “H (enthalpy of binding)” value in [8] (25 °C) is recorded as -5.24 kcal/mol. The affinity in data set [8] (Table S9), expressed as Kd, was 30.4 µM. In addition, the “Absorption (λmax)” value in [9] worked out at 412 nm.
Take `Cc1cc(O)c(C)c2sc(C3=N[C@@H](C(=O)O)CS3)nc12` [Compound 2e, 4′,7′-dimethyl-D-LH2]: the appKm in data set [2] worked out at 7.1 µM; in [5] it was 19.1 µM; in data set [6] it was 6.6 µM; in data set [10], 10.2 µM; in data set [12] it was 9.0 µM. Moreover, the Relative kcat came out at 1.0 in data set [2]; 0.2 in data set [5]; 6.3 in data set [6]; 1.2 in data set [10]; 5.5 in data set [12]. The “Bioluminescence wavelength (BLλ)” value stood at 637 nm in data set [4]; 636 nm in data set [7]; 644 nm in [11]; 583 nm in data set [13]; 631 nm in data set [14]. Moreover, in [9], the “Absorption (λmax)” value came to 330 nm. For the same molecule, the “Fluorescence (λem)” value in data set [9] is 560 nm and 523–560 nm. Besides, the Kd in data set [15] (25 °C, preformed Fluc-ApCPP complex, read-out: Dissociation constant (Kd) Fluc-ApCPP: Luciferin) amounted to 864 ± 7 µM. Also, the N site in data set [15] (Fluc-ApCCP) is 0.90. Besides, in data set [15] (Fluc-ApCCP, 25 °C), the “G (free energy of binding)” value is -4.41 kcal/mol. Besides, in data set [15] (Fluc-ApCCP, 25 °C), the “H (enthalpy of binding)” value is -80.0 kcal/mol.
`Cc1c(O)c2ccccc2c2nc(C3=N[C@@H](C(=O)O)CS3)sc12` [Compound 2f, 7′-methylnaphthol-D-luciferin]: the appKm in [2] came to 2.7 µM; in data set [5], 24.7 µM; in data set [12] it was 11.6 µM. The Relative kcat is reported as 0.1 in [2], 0.0 in data set [5], ~ 0.01 in data set [6] and 1.1 in data set [12]. In addition, the “Bioluminescence wavelength (BLλ)” value in data set [7] was 648 nm and > 630 nm; in [11], 634 nm; in data set [13], 557 nm. For the same molecule, the “Absorption (λmax)” value in [9] is listed as 437 nm. For the same molecule, in data set [9], the “Fluorescence (λem)” value stood at 580 nm.
With infraluciferin, the “Longest BL wavelength” value in [16] is recorded as above 700 nm.
